In patent US9273043B2, “TRPV1 antagonists including dihydroxy substituent and uses thereof” (Purdue Pharma L.P., priority 2011, dated 2016):
Marks after values point to notes of the source that are not given here.

System: FCA-induced inflammation of the rat hind paw
Experiment: Freund's complete adjuvant (FCA) model of inflammatory pain, paw withdrawal threshold
Assay type: in vivo
Settings: for % Reversal [mean]: rat FCA
Procedure: Test Animals: Each experiment uses rats weighing between 200-260 g at the start of the experiment. The rats are group-housed and have free access to food and water at all times, except prior to oral administration of a Compound of Formula (I) when food is removed for 16 hours before dosing. A control group acts as a comparison to rats treated with a Compound of Formula (I). The control group is administered the vehicle for the Compound of Formula (I). The volume of vehicle administered to the control group is the same as the volume of carrier and Compound of Formula (I) administered to the test group.
Inflammatory Pain: To assess the actions of a Compound of Formula (I) for the treatment or prevention of inflammatory pain, the Freund's complete adjuvant (“FCA”) model of inflammatory pain was used. FCA-induced inflammation of the rat hind paw is associated with the development of persistent inflammatory mechanical hyperalgesia and provides reliable prediction of the anti-hyperalgesic action of clinically useful analgesic drugs (Bartho et al., “Involvement of capsaicin-sensitive neurons in hyperalgesia and enhanced opioid antinociception in inflammation,” Naunyn-Schmiedeberg's Archives of Pharmacol. 342:666-670 (1990)). The right hind paw of each male, 6-week old Jcl:SD rat was administered a 50 μL intraplantar injection of 50% FCA (Sigma-Aldrich). 24 hour post-injection, the animal was assessed for response to noxious mechanical stimuli by determining the PWT, as described below. Rats were then administered a single injection of 0.1, 0.3, 1, 3, or 10 mg/kg of either the product prepared with Compound A155(a) and fumaric acid as described in Example 10, 20 mg/kg of an ibuprofen control (EMD Millipore Chemicals, Inc.), or vehicle as a control (0.5% weight/volume methylcellulose (400cP, Wako Pure Chemical Industries, Ltd., Osaka, Japan)/aqueous solution). […] Responses to noxious mechanical stimuli were then determined 1, 3, 5, and 7 hours post-administration. Percentage reversal of hyperalgesia for each animal was defined as: […]
With the exception of the controls (i.e., ibuprofen, vehicle) where the student's t-test was used, Dunnett's test was conducted for the % reversal. In either instance, values with p<0.05 were considered to be statistically significant. The % reversal results for administration of the product prepared with Compound A155(a) and fumaric acid as described in Example 10 and the respective controls are presented in Table 7.
Response to Mechanical Stimuli as an Assessment of Mechanical Hyperalgesia: The paw pressure assay was used to assess mechanical hyperalgesia. For this assay, hind paw withdrawal thresholds (PWT) to a noxious mechanical stimulus were determined using an analgesymeter (Model 37215, commercially available from Ugo Basile of Italy) as described in Stein, “Unilateral Inflammation of the Hindpaw in Rats as a Model of Prolonged Noxious Stimulation: Alterations in Behavior and Nociceptive Thresholds,” Pharmacol. Biochem. and Behavior 31:451-455 (1988). The maximum weight that could be applied to the hind paw was set at 250 g and the end point was taken as complete withdrawal of the paw. PWT was determined once for each rat at each time point and either only the affected (ipsilateral) paw was tested, or both the ipsilateral and contralateral (non-injured) paw were tested.

SMILES: CC1CN(c2ncc(C(O)CO)cc2F)CCN1C(=O)Nc1nc2cc(F)ccc2s1.O=C(O)C=CC(=O)O (stereo not drawn)
- minimal effective dose (rat FCA model): 0.1 mg/kg
- % Reversal [mean] (0.1 mg/kg, 1 h after administration): 31.9** %
- % Reversal [mean] (0.1 mg/kg, 1 h after administration, listed as product prepared with Compound A155(a) and fumaric acid): 31.9%
- % Reversal [mean] (0.1 mg/kg, 3 h after administration): 37.8** %
- % Reversal [mean] (0.1 mg/kg, 3 h after administration, listed as product prepared with Compound A155(a) and fumaric acid): 37.8%
- % Reversal [mean] (0.1 mg/kg, 5 h after administration): 31.3** %
- % Reversal [mean] (0.1 mg/kg, 5 h after administration, listed as product prepared with Compound A155(a) and fumaric acid): 31.3%
- % Reversal [mean] (0.1 mg/kg, 7 h after administration): 23.6** %
- % Reversal [mean] (0.1 mg/kg, 7 h after administration, listed as product prepared with Compound A155(a) and fumaric acid): 23.6%
- % Reversal [mean] (0.3 mg/kg, 1 h after administration): 65.0** %
- % Reversal [mean] (0.3 mg/kg, 1 h after administration, listed as product prepared with Compound A155(a) and fumaric acid): 65.0%
- % Reversal [mean] (0.3 mg/kg, 3 h after administration): 60.2** %
- % Reversal [mean] (0.3 mg/kg, 3 h after administration, listed as product prepared with Compound A155(a) and fumaric acid): 60.2%
- % Reversal [mean] (0.3 mg/kg, 5 h after administration): 54.1** %
- % Reversal [mean] (0.3 mg/kg, 5 h after administration, listed as product prepared with Compound A155(a) and fumaric acid): 54.1%
- % Reversal [mean] (0.3 mg/kg, 7 h after administration): 39.4** %
- % Reversal [mean] (0.3 mg/kg, 7 h after administration, listed as product prepared with Compound A155(a) and fumaric acid): 39.4%
- % Reversal [mean] (1 mg/kg, 1 h after administration): 79.4** %
- % Reversal [mean] (1 mg/kg, 3 h after administration): 84.1** %
- % Reversal [mean] (1 mg/kg, 5 h after administration): 78.2** %
- % Reversal [mean] (1 mg/kg, 7 h after administration): 70.5** %
- % Reversal [mean] (3 mg/kg, 1 h after administration): 80.3** %
- % Reversal [mean] (3 mg/kg, 1 h after administration, listed as product prepared with Compound A155(a) and fumaric acid): 80.3%
- % Reversal [mean] (3 mg/kg, 3 h after administration): 87.9** %
- % Reversal [mean] (3 mg/kg, 3 h after administration, listed as product prepared with Compound A155(a) and fumaric acid): 87.9%
- % Reversal [mean] (3 mg/kg, 5 h after administration): 86.6** %
- % Reversal [mean] (3 mg/kg, 5 h after administration, listed as product prepared with Compound A155(a) and fumaric acid): 86.6%
- % Reversal [mean] (3 mg/kg, 7 h after administration): 97.3** %
- % Reversal [mean] (3 mg/kg, 7 h after administration, listed as product prepared with Compound A155(a) and fumaric acid): 97.3%
- % Reversal [mean] (10 mg/kg, 1 h after administration): 102.5** %
- % Reversal [mean] (10 mg/kg, 3 h after administration): 94.1** %
- % Reversal [mean] (10 mg/kg, 5 h after administration): 97.3** %
- % Reversal [mean] (10 mg/kg, 7 h after administration): 93.1** %
